Format in all cases: in vivo, C57BL/6J mice
The subject of assay [1] is DIO mice. Kind of assay: Anti-obesity effects in DIO mice, 6-week treatment (HFD D12492): BW, calorie intake, observations. To be noted: sibutramine 30 mg/kg p.o. The method, then:
In this report, we performed 3 independent studies in DIO mice to characterize anti-obesity effects of our D5D specific inhibitor. Male C57BL/6J mice were obtained from Charles River Laboratories (Yokohama, Japan) or CLEA Japan (Osaka, Japan). The mice were fed a laboratory chow and water ad libitum and housed in a 12-h light/dark cycle. Compound or vehicle was administered once daily between 15: 00–19:00 by oral gavage. Body weight (BW) and food intake were monitored throughout the experiment.
(§1) Mice were fed a high-fat diet (HFD) that has 60% kcal from fat and contains 0.09% (w/w) AA (D12492; Research diets, Inc., see S1 Table for fatty acid profile) from 5 weeks of age, and they were divided into 5 groups (7 animals per group) at 11 weeks of age based on BW and daily food intake. In this experiment, 30 mg/kg sibutramine, a […], was used as a positive control for anti-obesity effects. Mice were orally administered compound-326 at doses of 0.1, 1, and 10 mg/kg, sibutramine at a dose of 30 mg/kg, or vehicle for 6 weeks. After 6 weeks, blood concentrations of DGLA and AA under non-fasting condition were evaluated as pharmacodynamics (PD) markers, and oral glucose tolerance test (OGTT) was performed.

Another assay has as its system D5D. Kind of assay: Blood fatty acids (PD markers AA, DGLA, EPA, DHA) after 6-week treatment in DIO mice. To be noted: sibutramine 30 mg/kg, 6 weeks. The procedure:
Fatty acids were extracted from blood and tissues by adding hexane-isopropanol-butylated hydroxytoluene (60:40:0.01, v/v/w). Samples were vortexed for 30 min. The hexane phase was removed and evaporated to dryness under nitrogen stream and vacuum. Dried samples were dissolved in methanol and analyzed by HPLC.
as §1

The subject of assay [2] is DIO mice. Description: Oral glucose tolerance test and HOMA-IR after 6-week treatment in DIO mice. As to conditions: sibutramine 30 mg/kg, 6 weeks. The method, then: as §1
On the last day of the experiment, mice were given an oral glucose load (2 g/kg) after overnight fasting. Blood samples were collected at specified time points of 0 (pre-glucose/fasting glucose levels), 10, 30, 60, and 120 min post glucose load for the determination of plasma glucose as well as insulin levels. Plasma glucose was enzymatically measured with auto-analyzer 7180 (Hitachi High-Technologies Corporation, Tokyo, Japan). Plasma insulin was measured with mouse insulin ELISA kit (Shibayagi, Gunma, Japan). The total area under the glucose curve was determined from time 0 to 120 min (AUC0–120 min) after glucose administration. Homeostasis model assessment-insulin […] (HOMA-IR) was calculated using the formula: [(fasted PG: mg/dL)×(fasted insulin; μU/mL)[…]/405] [28].

Where a name gives a salt, the structure may show the parent alone.

On to `CC(C)CC(N(C)C)C1(c2ccc(Cl)cc2)CCC1` (stereo not drawn) [sibutramine, Sibutramine hydrochloride monohydrate, reference compound], for which the BW result in the assay with DIO mice [1] (6 weeks, BW then increased in line with food intake) is listed as “potent BW loss for a week”. Besides, the food intake result in the assay on DIO mice [1] (from day 1, followed by a rebound) was “transient and potent decrease in food intake”. Moreover, in the assay on D5D, the “blood AA level” value is on record as “slightly but significantly decreased”, the “blood AA to DGLA ratio” value is reported as “slightly but significantly decreased” and the “blood DGLA level” value is on record as “slightly but significantly decreased”. In addition, in the assay with DIO mice [2], the HOMA-IR result is on record as “significantly improved”.

(Values after paper PMC5104425, “A Novel Selective Inhibitor of Delta-5 Desaturase Lowers Insulin Resistance and Reduces Body Weight in Diet-Induced Obese C57BL/6J Mice” (PLoS ONE, 2016).)
